Reference: patent publication US20190307754A1, “PDE9 INHIBITORS FOR TREATMENT OF PERIPHERAL DISEASES” (IMARA, INC., priority 2016, published 2019)

Key:
HbSS-Townes mice = test: Microvascular stasis and hematology in HbSS-Townes mice; assay type: in vivo
Protocol: The ability of Compound P3.1 to reduce vaso-occulsion was assessed in HbSS-Townes transgenic sickle mice after transient hypoxia and re-oxygenation. This study assessed the effects of repeated (10 days) oral dosing of Compound P3.1 and HU on microvascular stasis and other hematological markers of sickle cell disease, after transient hypoxia and re-oxygenation, in Townes transgenic sickle mice, a mouse model of sickle cell disease (Hba^tm1(HBA)Tow Hbb^tm2(HBG1,HBB*)Tow/Hbb^tm3(HBG1,HBB)Tow/J). HbSS-Townes mice were divided into groups of 3 mice and were then dosed orally via drinking water with Compound P3.1 at 10 mg/kg/day, Compound P3.1 at 30 mg/kg/day, HU (100 mg/kg/day), or a combination of Compound P3.1 and HU (at doses of 30 and 100 mg/kg/day, respectively) for 10 days. A final group received water containing 0.08% methylcellulose, the vehicle used to prepare the test items, and served as controls. On Day 7 of treatment, the mice were implanted with dorsal skin-fold chambers (DSFC), and on Day 10 of treatment, 20-23 flowing subcutaneous venules in the DSFC window were selected and mapped. After venule selection and mapping, mice were placed in a chamber and exposed to a hypoxic atmosphere (7% O2/93% N2) for 1 hour, after which they were returned to room air. All of the selected venules were re-examined after 1 and 4 hours of re-oxygenation in room air and the number of static (no flow) venules was counted and expressed as percent stasis. On completion of these measurements, blood was collected for clinical pathology with a focus on hematological measures associated with sickle cell disease.

rat = test: Rat female fertility study; assay type: in vivo; conditions: female rat, 25, 100, or 200 mg/kg/d oral gavage
Protocol: In a rat female fertility study, animal groups were given 0, 25, 100, or 200 mg/kg/d oral gavage of Compound P3.1. No treatment-related clinical signs were observed. […] There were no macroscopic necropsy findings that indicated an effect of Compound P3.1 administration.

PDE9 = PDE9 (Homo sapiens, UniProt O76083); test: PDE9 inhibition assay; assay type: biochemical
Sequence of PDE9 (O76083 whole entry): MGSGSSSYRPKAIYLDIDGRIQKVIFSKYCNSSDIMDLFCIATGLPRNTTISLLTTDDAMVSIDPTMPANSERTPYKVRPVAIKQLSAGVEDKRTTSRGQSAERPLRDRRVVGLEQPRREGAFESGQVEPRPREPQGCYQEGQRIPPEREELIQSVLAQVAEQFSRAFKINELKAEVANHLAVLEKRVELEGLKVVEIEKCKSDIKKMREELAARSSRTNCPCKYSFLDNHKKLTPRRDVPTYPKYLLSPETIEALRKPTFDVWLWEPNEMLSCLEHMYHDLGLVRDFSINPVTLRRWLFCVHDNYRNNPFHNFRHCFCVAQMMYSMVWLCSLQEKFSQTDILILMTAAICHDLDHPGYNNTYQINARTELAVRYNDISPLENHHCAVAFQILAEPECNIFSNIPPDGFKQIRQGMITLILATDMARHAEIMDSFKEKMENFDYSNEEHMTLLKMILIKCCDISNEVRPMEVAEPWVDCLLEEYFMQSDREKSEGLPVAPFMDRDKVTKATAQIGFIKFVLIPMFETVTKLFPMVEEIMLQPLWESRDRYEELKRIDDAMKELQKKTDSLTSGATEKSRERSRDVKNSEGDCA
Protocol: Reactions are initiated by addition of the cyclic nucleotide substrate, and reactions are allowed to proceed for one hr at room temperature before being terminated through mixing with 15 uL 8 mg/mL yttrium silicate SPA beads (Amersham).
Following a 1 hour incubation the reactions were terminated by addition of 15 uL 8 mg/mL yttrium silicate SPA beads (Amersham). […] IC50 values were calculated by nonlinear regression using XLfit (IDBS).

[1] = Plasma protein binding, mouse; assay type: in vitro ADME; conditions: read-out: mean plasma fraction bound (converted)
[2] = Compound P3.1 30 mg/kg/day, HU 100 mg/kg/day, or both, 10 days

C[C@@H]1CN(Cc2ncccn2)C[C@H]1c1cn2c(C3CCOCC3)ncc2c(=O)[nH]1 (single isomer, unassigned) [Compound P3.1]
microvascular stasis (HbSS-Townes mice; 10 mg/kg/day, 10 days, 1-hour time point): reduced stasis statistically significantly
microvascular stasis (HbSS-Townes mice; 10 mg/kg/day, 10 days, 4 hours): not at 4 hours
microvascular stasis (HbSS-Townes mice; 30 mg/kg/day Compound P3.1 or 100 mg/kg HU, drinking water, 10 days, 1 and 4 hours post hypoxia): statistically significant reductions in stasis
total WBC numbers (HbSS-Townes mice; Compound P3.1 30 mg/kg/day or HU 100 mg/kg/day, 10 days): reduce total WBC numbers
vessel occlusion induced by transient hypoxia and re-oxygenation (HbSS-Townes mice; Compound P3.1 30 mg/kg/day, HU 100 mg/kg/day, or both): effectively reduced
number of HbF positive red cells (HbSS-Townes mice; [2]): increase the number of HbF positive red cells
proportion of sickled RBCs (HbSS-Townes mice; [2]): reduce the proportion of sickled RBCs
early embryonic development (rat): no adverse effect
pre- or post-implantation loss (rat): no effect
IC50 (PDE9): 0.049 µM
fraction unbound [1]: 0.767
